Like-named read-outs stand apart in the source and are kept apart here.

Data set [1] can be described thus: Toxicity of compounds for uninfected MT-2 cells (MTT assay). As to conditions: human. An excerpt: (§1) In order to test whether some external death stimuli, which are independent of bcl-2 (Reed, 1994), may not selectively kill HIV-infected cells, we exposed uninfected and HIV-infected cells to various chemical toxins, including losoxantrone, bisnafide, etoposide and hydroxyurea. […] Therefore, we proceeded to examine whether either losoxantrone or etoposide were able to selectively kill HIV-infected cells.
(§2) The concentration of the cytotoxic drugs losoxantrone, etoposide or hydroxyurea required to reduce cell viability by 50% (TC50) was determined with or without virus infection. Graded concentrations of drug in RPMI (5% FCS) were added to a 96-well microtiter plate. 1×10^e5 cells were added per well. Cell control wells contained cells in RPMI only. Plates were incubated at 37° C., 5% CO2 for 3 days. The tetrazolium dye (3-4,5-dimethylthiazol-2yl)-2,5-diphenyltetrazolium bromide (MTT) was used to assess the number of viable cells. After the 3-day incubation period, 10 μL of MTT (5 mg/mL in 1×PBS) was added to each well. Following a 2 hour incubation at 37° C., 150 μL was removed from each well and 200 μL of 0.04 N HCl in isopropanol was added. The contents of each well were mixed and the quantity of reduced dye was measured by absorbance at 570 nm. The concentration of compound producing a 50% reduction in signal relative to the untreated cultures (TC50) was determined.
On the technique in general: Formazan colour is commonly taken as a measure of viable cells.

Data set [2] concerns human T-lymphocytes (MT-2). The description is as above.
Text: as §1, §2

The test system of data set [3] is human T-lymphocytes (MT-2) infected with HIV-1. The data set can be described thus: Toxicity of compounds for HIV-1-infected MT-2 cells (MTT assay). The conditions noted are these: for killing of infected cells relative to uninfected lymphocytes: after 24 hours, losoxantrone 10 nM, etoposide 100 nM.
Text: as §1
as §2, with “Plates were incubated at 37° C., 5% CO2 for 3 days.” left out, “After the 3-day incubation period, 10 μL of MTT (5 mg/mL in 1×PBS) was added to each well.” left out

In data set [4] the test system is HIV-1 (RF strain). The data set is classed as cell-based. As to conditions: for HIV Replication (Day 4), p24: single agent, human PBMCs, Table 2; for changes in the level of HIV p24 after either 4 or 8 days: single agents at the concentrations of Table 2. As to the method:
Freshly isolated human blood lymphocytes and monocytes were infected with HIV-1 (RF strain) and then incubated for an additional 3 days in the presence of compounds alone or in combinations or left untreated. At the end of 4 days, the infected cells were briefly centrifuged. The supernatant was collected and used to titer HIV p24, using an enzyme-linked immunosorbent assay (ELISA). The cell pellets were washed two times with medium lacking any inhibitors, and the washed human peripheral blood mononuclear cells (PBMCs) were mixed 1:1 with MT-2 lymphocytes and incubated for an additional 4 days absent any inhibitors. All cells were then removed by centrifugation and the supernatant was again assayed for p24 levels by ELISA.
Viral p24 produced by HIV-1 (RF) infected cells was quantified to determine the effects of a cytotoxic drug and efavirenz alone or in combination. On day one, 5.25×10^e6 donor PBMCs (stimulated by PHA/IL-2 for 72 hours in RPMI tissue culture medium were centrifuged at 1,000 rpm for 10 minutes and the supernatant fluid was decanted. Using 50% tissue culture infectious dose (TCID50) estimated from the viral stock titration procedure (PRR 97-04), 5.25×10^6 PBMCs were infected with 5.2×10^3 TCID50 of virus (M. O. I. ˜0.001). Cells were resuspended, the virus stock added, and incubated at 37° C. for one hour. RPMI was added to the infected PBMCs and unabsorbed virus in the supernatant fluid was removed following centrifugation. The cells were resuspended in 10 mL RPMI (20% FCS, 30 units IL-2/mL) and placed in a 25 cm^2 tissue culture flask. The virus control flask contained infected cells only. Similar flasks contained efavirenz or the cytotoxic drug added separately or in combination. Flasks were incubated at 37° C., in 5% CO2 for 3 days. On day 4, the contents of each flask were centrifuged and the supernatant, inactivated with 0.5% Triton X-100, was frozen at −70° C. for p24 analysis. The infected PBMCs were resuspended in RPMI, centrifuged again, and the supernatant discarded to remove residual drugs. The pellets were resuspended in each flask, and 1×10^e6 MT-2 cells were added. The final volume was 10 mL RPMI (5% FCS) per flask. After 4 more days of incubation (day 8), supernatant from each flask was inactivated with Triton X-100 and frozen at −70° C. The p24 antigen concentration of viral supernatants from days 4 and 8 was determined using the NEN Life Science Products HIV-1 p24 antigen capture assay.

Data set [5] concerns HIV-1 (RF strain). The data set is classed as cell-based. As to conditions: for Infectious Centers (Day 8), p24: single agent, PBMCs washed, co-cultivated with MT-2, Table 2.
Another data set relates to PBMC. Put plainly: Inhibition of PBMC cell division. The data set is classed as cell-based, human. As to conditions: 100 μM.
Where [6] appears, read: Homo sapiens, T-lymphocyte, read-out: Viable Cells (% Remaining) +HIV.

Consider `O=C1c2c(O)cccc2-c2nn(CCNCCO)c3ccc(NCCNCCO)c1c23` [losoxantrone], for which the viability at 24 h, 0.01 µM in data set [1] was 68%. Besides, the “concentration with evidence of substantial toxicity to uninfected cells” value in data set [2] was at least 10 nM. In addition, the viability at 0.01 µM in data set [3] (setting [6]) was determined as 4%. Moreover, the “killing of infected cells relative to uninfected lymphocytes” value in data set [3] was 5 fold. The “range of concentrations that show selectivity for infected cells” value in data set [3] (cell survival, infected vs. control cells) is recorded as 0.1 to 10 nM. In addition, the “HIV Replication (Day 4), p24” value with HIV-1 (RF strain) [4] (10 nM) is 200000 pg/mL. Further, the “increase in p24 titers” value in the data set on HIV-1 (RF strain) [4] (10 nM, days 4 and 8) fell in the range of 3 to 7 fold. For the same molecule, the “changes in the level of HIV p24 after either 4 or 8 days” value (“changes in the level of HIV p24” for short) with HIV-1 (RF strain) [4] is recorded as “only small changes”. The “Infectious Centers (Day 8), p24” value with HIV-1 (RF strain) [5] (10 nM) amounted to 700000 pg/mL.
In turn, `COc1cc([C@@H]2c3cc4c(cc3[C@@H](O[C@@H]3O[C@@H]5CO[C@@H](C)O[C@H]5[C@H](O)[C@H]3O)[C@H]3COC(=O)[C@H]23)OCO4)cc(OC)c1O` [etoposide] yielded a viability at 24 h, 0.1 µM in data set [1] of 71%. In addition, the viability at 0.1 µM in data set [3] (setting [6]) amounted to 12%. Moreover, the “killing of infected cells relative to uninfected lymphocytes” value in data set [3] was found to be 6 fold. For the same molecule, the “p24 results when substituted for losoxantrone” value in the data set on HIV-1 (RF strain) [5] (compared with the losoxantrone results, not shown) was “very similar”.
Regarding `Nc1cccc(CN2C(=O)N(Cc3cccc(N)c3)[C@H](Cc3ccccc3)[C@H](O)[C@@H](O)[C@H]2Cc2ccccc2)c1` [Compound E, [4R-(4α, 5α, 6β, 7β]-1,3-bis (3-aminophenylmethyl]hexahydro-5,6-dihydroxy-4,7-bis (phenlymethyl-2H-1,3-diazepin-2-one dimethylsulfonate], the “HIV Replication (Day 4), p24” value in the data set on HIV-1 (RF strain) [4] (100 nM) came out at 25000 pg/mL. Also, in the data set on HIV-1 (RF strain) [4], the “changes in the level of HIV p24” value is reported as “only small changes”. Also, the “Infectious Centers (Day 8), p24” value in the data set with HIV-1 (RF strain) [5] (100 nM) stood at 350000 pg/mL.
On to `O=C1Nc2ccc(Cl)cc2[C@@](C#CC2CC2)(C(F)(F)F)O1` [efavirenz], for which the viability at 24 h, 0.01 µM in data set [1] (uninfected MT-2 T-lymphocytes) came out at 81%. Moreover, the viability at 0.01 µM in data set [3] (setting [6]) was 82%. In addition, the “HIV Replication (Day 4), p24” value with HIV-1 (RF strain) [4] (10 nM) came to 15000 pg/mL. In addition, the “changes in the level of HIV p24” value in the data set on HIV-1 (RF strain) [4] is on record as “only small changes”. The “Infectious Centers (Day 8), p24” value with HIV-1 (RF strain) [5] (10 nM) was 200000 pg/mL.
For the molecule `NC(=O)NO` [hydroxyurea], the “inhibition of PBMC cell division” value in the data set on PBMC turned out to be 3 fold.

For the origin of these results see patent US6649644B1, “Method of treating HIV infection by combined use of a cytotoxic agent and a non-nucleoside reverse transcriptase inhibitor” (priority 1998, dated 2003).
